# Experimental data taken from patent publication US9920063B2, “Melampomagnolide B derivatives” (Board of Trustees of the University of Arkansas, priority 2013, dated 2018).
# Read-outs that look alike come from different tables or passages of the source.
# How the values were obtained:
# SK-OV-3 = details: SK-OV-3; NCI five dose
# [1] = system: panel of 60 human cancer cell lines; experiment: Screen against a panel of 60 human tumor cell lines (single dose and five dose), panel and sub-panel statements; format: cell-based
# Method for AML 052308 cells: For each compound, in vitro cell culture studies were performed in which a range of concentrations (0.25-20 μM) was tested for cytotoxicity against leukemia cell lines, primary leukemia specimens and normal bone marrow controls.
compound,measurement,setting,value
C=C1C(=O)O[C@H]2[C@H]1CC/C(COC(=O)c1cc3ccccc3[nH]1)=C\CC[C@@]1(C)O[C@@H]21 [BS-1-28],GI50,SK-OV-3,1650 nM
same,TGI,SK-OV-3,4.47E−6
same,Fold more cytotoxic than MMB,AML 052308 cells,around 7 fold
same,CC50,HCC-2998,8770 nM
same,Percent Growth,"HCC-2998; HCC-2998, Log10 Concentration −4.0",−84%
same,Percent Growth,"HCC-2998; HCC-2998, Log10 Concentration −5.0",−59%
same,Percent Growth,"HCC-2998; HCC-2998, Log10 Concentration −6.0",104%
same,Percent Growth,"HCC-2998; HCC-2998, Log10 Concentration −7.0",104%
same,Percent Growth,"HCC-2998; HCC-2998, Log10 Concentration −8.0",103%
same,GI50,"HCC-2998; HCC-2998, NCI five dose",2140 nM
same,TGI,"HCC-2998; HCC-2998, NCI five dose",4.33E−6
same,CC50,SF-295,12000 nM
same,Percent Growth,"SF-295; SF-295, Log10 Concentration −4.0",−95%
same,Percent Growth,"SF-295; SF-295, Log10 Concentration −5.0",.46%
same,Percent Growth,"SF-295; SF-295, Log10 Concentration −6.0",79%
same,Percent Growth,"SF-295; SF-295, Log10 Concentration −7.0",89%
same,Percent Growth,"SF-295; SF-295, Log10 Concentration −8.0",85%
same,GI50,"SF-295; SF-295, NCI five dose",1710 nM
same,TGI,"SF-295; SF-295, NCI five dose",4.28E−6
same,CC50,LOX IMVI,732 nM
same,Percent Growth,"LOX IMVI; LOX IMVI, Log10 Concentration −4.0",−81%
same,Percent Growth,"LOX IMVI; LOX IMVI, Log10 Concentration −5.0",−88%
same,Percent Growth,"LOX IMVI; LOX IMVI, Log10 Concentration −6.0",−72%
same,Percent Growth,"LOX IMVI; LOX IMVI, Log10 Concentration −7.0",93%
same,Percent Growth,"LOX IMVI; LOX IMVI, Log10 Concentration −8.0",93%
same,GI50,"LOX IMVI; LOX IMVI, NCI five dose",182 nM
same,TGI,"LOX IMVI; LOX IMVI, NCI five dose",3.65E−7
same,CC50,NCI-H23,7720 nM
same,Percent Growth,"NCI-H23; NCI-H23, Log10 Concentration −4.0",−84%
same,Percent Growth,"NCI-H23; NCI-H23, Log10 Concentration −5.0",−67%
same,Percent Growth,"NCI-H23; NCI-H23, Log10 Concentration −6.0",85%
same,Percent Growth,"NCI-H23; NCI-H23, Log10 Concentration −7.0",96%
same,Percent Growth,"NCI-H23; NCI-H23, Log10 Concentration −8.0",96%
same,GI50,"NCI-H23; NCI-H23, NCI five dose",1690 nM
same,TGI,"NCI-H23; NCI-H23, NCI five dose",3.62E−6
same,CC50,UACC-62,6980 nM
same,Percent Growth,"UACC-62; UACC-62, Log10 Concentration −4.0",−15%
same,Percent Growth,"UACC-62; UACC-62, Log10 Concentration −5.0",−73%
same,Percent Growth,"UACC-62; UACC-62, Log10 Concentration −6.0",75%
same,Percent Growth,"UACC-62; UACC-62, Log10 Concentration −7.0",91%
same,Percent Growth,"UACC-62; UACC-62, Log10 Concentration −8.0",97%
same,GI50,"UACC-62; UACC-62, NCI five dose",1470 nM
same,TGI,"UACC-62; UACC-62, NCI five dose",3.21E−6
same,CC50,KM12,15600 nM
same,Percent Growth,"KM12; KM12, Log10 Concentration −4.0",−82%
same,Percent Growth,"KM12; KM12, Log10 Concentration −5.0",−42%
same,Percent Growth,"KM12; KM12, Log10 Concentration −6.0",92%
same,Percent Growth,"KM12; KM12, Log10 Concentration −7.0",96%
same,Percent Growth,"KM12; KM12, Log10 Concentration −8.0",93%
same,GI50,"KM12; KM12, NCI five dose",2050 nM
same,TGI,"KM12; KM12, NCI five dose",4.84E−6
same,CC50,T-47D,> 100000 nM
same,GI50,T-47D,< 10 nM
same,Percent Growth,"T-47D; T-47D, Log10 Concentration −4.0",−33%
same,Percent Growth,"T-47D; T-47D, Log10 Concentration −5.0",−43%
same,Percent Growth,"T-47D; T-47D, Log10 Concentration −6.0",35%
same,Percent Growth,"T-47D; T-47D, Log10 Concentration −7.0",40%
same,Percent Growth,"T-47D; T-47D, Log10 Concentration −8.0",−2%
same,GI50,"T-47D; T-47D, NCI five dose",< 10 nM
same,"Growth inhibition, five dose screening","[1]; CCRF-CEM, HL-60 (TB), K-562, RPMI-8226, HOP-92, NCI-H522, HCT-116, HCT-15, SW-620, LOX IMVI, M14, MDA-MB-435, 786-0, ACHN, UO-31",potent nanomolar growth inhibition
same,"Anticancer activity, five dose screening","[1]; melanoma, leukemia, colon, CNS, breast, ovarian, non-small cell lung, renal, and prostate cancers",remarkable anticancer activity
same,Outcome of initial single dose screening,"[1]; single concentration 10^−5 M, more than 60% growth inhibition in at least eight cell lines of the panel",selected for five dose screening
same,CC50,NCI-H460,7750 nM
same,Percent Growth,"NCI-H460; NCI-H460, Log10 Concentration −4.0",−75%
same,Percent Growth,"NCI-H460; NCI-H460, Log10 Concentration −5.0",−67%
same,Percent Growth,"NCI-H460; NCI-H460, Log10 Concentration −6.0",86%
same,Percent Growth,"NCI-H460; NCI-H460, Log10 Concentration −7.0",101%
same,Percent Growth,"NCI-H460; NCI-H460, Log10 Concentration −8.0",166%
same,GI50,"NCI-H460; NCI-H460, NCI five dose",1730 nM
same,TGI,"NCI-H460; NCI-H460, NCI five dose",3.66E−6
